In patent publication USRE30354E, “Novel ethereally monosubstituted monosaccharides” (Strategic Medical Research Corp., priority 1978, dated 1980):
Values after ≈ are worked out from the molar mass of the structure shown.

Tests used:
light sensitivity = type: physicochemical
herpes simplex virus = experiment: inhibition of herpes simplex virus multiplication in tissue culture (plaque formation technic of Rapp); type: cell-based; conditions: for IC50: read-out: Concentration required to exert 50% inhibition of herpes-induced plaque formation; for IC100: read-out: Concentration required to exert 100% inhibition of herpes-induced plaque formation
influenza A/PR/8 = experiment: prevention of death in mice with lethal influenza A/PR/8 infection; type: in vivo; conditions: for % of Population Protected / % Mortality: 8 days; for % Mortality: control 95
Protocol: The above medication was also examined for its capacity to prevent death in mice ill with a lethal influenza A/PR/8 infection. The drug was given subcutaneously at 3 dose levels, once 90 minutes before infection.

influenza A2 /Hong Kong = experiment: suppression of influenza A2/Hong Kong disease in mice (lung weight); type: in vivo; conditions: 40 mg/Kg orally from 24 h post-infection; 8 days; from lung weights; 50% of drug blocked at 1,2- with acetone
[1] = tested on: influenza A2 virus, Hong Kong strain; experiment: microbe, parasite or virus in culture; type: cell-based
[2] = 10 mg/Kg s.c. once 90 min before infection
[3] = 40 mg/Kg s.c. once 90 min before infection
[4] = 160 mg/Kg s.c. once 90 min before infection

Compound	IC50 (herpes simplex virus) [mg/L]	IC100 (herpes simplex virus) [µg/mL]	other results
3-O-D-glucopropionitrile	–	–	light sensitivity (light sensitivity): photosensitive
CCN(CC)CCOC1C(C2COC(C)(C)O2)OC2OC(C)(C)OC21 [1,2:5,6-di-O-isopropylidene-3-O-2'-(N',N'-diethylaminoethyl)-D-glucofuranose]	6 (≈ 16.7 µM)	30	–
CCN(CC)CCO[C@H]1[C@H](O)[C@@H](CO)OC(O)[C@@H]1O (stereo partly drawn) [3-O-2'-(N',N'-diethylaminoethyl)-D-glucopyranose]	2 (≈ 7.16 µM)	20	–
CC(CN(C)C)O[C@H]1[C@H](O)[C@@H](CO)OC(O)[C@@H]1O (stereo partly drawn) [3-O-2'-(N',N'-dimethylaminopropyl)-D-glucopyranose]	–	–	Concentration required to exert 50% inhibition of herpes-induced plaque formation (herpes simplex virus; herpes simplex, tissue culture): 3 µg/mL; Concentration required to exert 100% inhibition of herpes-induced plaque formation (herpes simplex virus; herpes simplex, tissue culture): < 20 µg/mL
CC(CO[C@H]1[C@H](O)[C@@H](CO)OC(O)[C@@H]1O)CN(C)C (stereo partly drawn) [3-O-3'-(2',N',N'-trimethylamino-n-propyl)-D-glucopyranose]	2 (≈ 7.16 µM)	7	–
CN(C)CCCO[C@H]1[C@H](O)[C@@H](CO)OC(O)[C@@H]1O (stereo partly drawn) [3-O-3'-(N',N'-dimethylamino-n-propyl)-D-glucopyranose]	0.3 (≈ 1.13 µM)	1	% of Population Protected (influenza A/PR/8; [2]): 14%; % Mortality (influenza A/PR/8; [2]): 81%; % of Population Protected (influenza A/PR/8; [3]): 23%; % Mortality (influenza A/PR/8; [3]): 72%; % of Population Protected (influenza A/PR/8; [4]): 50%; % Mortality (influenza A/PR/8; [4]): 45%; protection against death (influenza A/PR/8; 3 s.c. dose levels, once 90 minutes before infection): significant dose-dependent protection against death; % Disease Suppression (influenza A2 /Hong Kong): 82%; potency of virus-inhibiting effect [1]: the most potent effect; anti-herpes potency (herpes simplex virus; relative to other derivatives of Table 2): the most potent derivative
NCCCO[C@H]1[C@H](O)[C@@H](CO)OC(O)[C@@H]1O (stereo partly drawn) [3-O-3'-n-propylamino-D-glucose, 3-O-3'-(n-propylamino)-D-glucopyranose]	3 (≈ 12.6 µM)	> 20	–
CN1CCC(O[C@H]2[C@H](O)[C@@H](CO)OC(O)[C@@H]2O)CC1 (stereo partly drawn) [3-O-4'-(N-methylpiperidyl)-D-glucose, 3-O-4'-(N-methylpiperidyl)-D-glucopyranose]	0.7 (≈ 2.52 µM)	6	–
CN(C)CCCOC[C@H]1OC(O)[C@H](O)[C@@H](O)[C@H]1O (stereo partly drawn) [6-O-3'-(N',N'-dimethylamino-n-propyl)-D-galactopyranose]	2 (≈ 7.54 µM)	> 10	–
CC1(C)OCC(C2OC3OC(C)(C)OC3C2OCCC#N)O1 [di-O-isopropylidene-3-O-3'-propionitrile-D-glucofuranose]	–	–	light sensitivity (light sensitivity): light sensitive
CC(CN(C)C)O[C@H]1O[C@H](CO)[C@@H](O)[C@H](O)[C@H]1O (stereo partly drawn) [α-N,N-dimethylaminoisopropyl glucoside, α-N,N-dimethylaminoisopropyl-D-glucoside]	10 (≈ 37.7 µM)	> 50	log reduction at 3 µg/mL ([1]; 3 μg/ml, 100 TCD50 inoculum, BHK cells, 4.0 is maximum, read-out: Log Decrease in Infectivity of Virus Inoculum): 1.5; log reduction at 10 µg/mL ([1]; 10 μg/ml, 100 TCD50 inoculum, BHK cells, 4.0 is maximum (complete suppression), read-out: Log Decrease in Infectivity of Virus Inoculum): 2.5
